How the values were obtained:
intact rats [1] = test: Lipid absorption in intact rats after oral vegetable oil with DIMEB; type: in vivo; conditions: for Plasma triglyceride concentration / Free fatty acid concentration in the plasma: normal rats; for Plasma triglyceride concentration: 2 ml vegetable oil + 50 mg DIMEB oral; for Free fatty acid concentration in the plasma: 2 ml vegetable oil + DIMEB oral
Protocol: The effect of DIMEB on the absorption of a vegetable oil was investigated in intact rats. The aim of this experiment was to elucidate whether the emulsification and intestinal absorption of the vegetable oil were stimulated by DIMEB in addition to the physiological bile functions. […] Thereafter, the triglyceride and free fatty acid concentration of the blood plasma were examined at various intervals. (Tables II and III). The triglyceride concentration of the plasma was determined by using the method of E. Van Handel [Clin. […] G. Dumcombe [Biochem.

[2] = test system: lipase (pancreas suspension); test: In vitro enzymatic hydrolysis of triglycerides: olive oil, pancreas suspension; type: biochemical; conditions: for 0.005 N NaOH consumed: series Bile I, olive oil, pancreas suspension, 37° C.
Protocol: In an aqueous medium, lipase is capable to split triglycerides only at an extraordinarily low rate. Therefore, an organic solvent should be added to the system, by which the solubility of the triglycerides is increased, but the enzyme activity is diminished. Alternatively, some type of detergent, suitably bile has to be used. The effect of bile was compared to that of DIMEB at 37° C. in such a way that, the quantity of the formed free fatty acids in the samples taken from the reaction mixture at various intervals was titrated by using sodium hydroxide solution. The composition of the reaction mixture was as follows:
a total volume of 1.5 ml contained 4 μmoles of the substrate (triolein or olive oil), 10 mg of bovine serum albumin, 75 μmoles of sodium chloride, 50 μmoles of a phosphate buffer solution (pH 7.4) and 0.25 ml of an enzyme solution. A lipase of the Serva Company (in an 1 mg/10 ml solution) or a pancreas powder (0.5 g was suspended in 10 ml of distilled water and the slightly opalescent solution obtained after filtration was used) were employed as enzyme preparations.
The composition of the solutions to be tested were as follows:
0.5 ml of buffer+10 mg of serum albumin+3.54 mg of substrate+0.25 ml of enzyme solution plus
(a) 0.25 ml of diluted bile+0.50 ml of distilled water; or
(b) 50 mg of dimethyl-β-cyclodextrin dissolved in 0.75 ml of water; or […]

bile-deficient rats = test: Substitution of the bile in rats: 5-day fat treatment, faecal, plasma and liver lipids; type: in vivo, rats (Etymis rattus var. albino)
Protocol: In an other series of experiments, the total lipid content of the faeces discharged by bile-deficient rats was studied.
The oral treatment was started with the daily administration of 1 ml of swine fat or 1 ml of swine fat together with 150 mg of DIMEB, respectively, in the 72nd hour following the ligature. The treatment was continued for 5 days. The faeces was collected in the first 4 days of the treatment. In the 4th hour following the treatment on the 5th day, the experimental animals were decapitated and their samples were worked up. […] An extraordinarily high amount of lipids were eliminated with the faeces of the animals fed with fat. […] Nearly 100 percent of the introduced fat was absorbed under the effect of DIMEB.
A significant deviation was observed between the groups treated with fat or with fat together with DIMEB, respectively. […] The triglyceride concentration was restored in this group to the control value by the treatment with fat. A significant increase in the triglyceride concentration was induced by the treatment with fat together with DIMEB in comparison to the former group.

intact rats [3] = test: Absorption of 3H-stearic acid with oral DIMEB in intact rats; type: in vivo, CFY female rats; conditions: for Radioactivity in 10 ml of blood: 11.3 mg 3H-stearic acid + 50 mg DIMEB oral
Protocol: The effect of DIMEB on the absorption of ^3 H-stearic acid was studied in intact rats. The aim of this experiment was to make clear if the absorption of stearic acid was stimulated by DIMEB under the conditions of physiological bile functions. The animals were starved overnight before and during the experiment but received water ad libitum. One group of the experimental animals (CFY female rats with an average body weight of 180 g; 3 animals ) received 13 mg of ^3 H-stearic acid (specific radioactivity: 147.22 kBq/mg), whereas the other group (3 animals) was given 11.3 mg of ^3 H-stearic acid and 50 mg of DIMEB in 2 ml of distilled water. The substances were suspended in the distilled water ultrasonically. Thereafter, the radioactivity level of the blood was measured at various time intervals by using the liquid scintillation method (Table X).

mice = test: Toxicity on mice; type: in vivo; conditions: doses up to 3000 mg/kg of body-weight
[4] = bile acid-deficient rats, daily 1 ml fat + 150 mg DIMEB, treatment lasting 5 days

Q: `COC[C@H]1O[C@@H]2O[C@H]3[C@H](O)[C@@H](OC)[C@@H](O[C@H]4[C@H](O)[C@@H](OC)[C@@H](O[C@H]5[C@H](O)[C@@H](OC)[C@@H](O[C@H]6[C@H](O)[C@@H](OC)[C@@H](O[C@H]7[C@H](O)[C@@H](OC)[C@@H](O[C@H]8[C@H](O)[C@@H](OC)[C@@H](O[C@H]1[C@H](O)[C@H]2OC)O[C@@H]8COC)O[C@@H]7COC)O[C@@H]6COC)O[C@@H]5COC)O[C@@H]4COC)O[C@@H]3COC` [DIMEB, heptakis(2,6-di-O-methyl)-β-cyclodextrin] was tested. Which “Increase of plasma triglyceride concentration” value (intact rats [1]; intact rats, oil + 50 mg DIMEB, 4th hour) did it give?
A: Its value is “more than 100%”.

Q: What about the Plasma triglyceride concentration (intact rats [1]; Hour 1) of the same compound?
A: The Plasma triglyceride concentration was 44 ± 6 mg/100 ml.

Q: What about the Plasma triglyceride concentration (intact rats [1]; Hour 2.5) of the same compound?
A: The Plasma triglyceride concentration was 61 ± 18 mg/100 ml.

Q: What about the Plasma triglyceride concentration (intact rats [1]; Hour 4) of the same compound?
A: The Plasma triglyceride concentration was 121 ± 7 mg/100 ml.

Q: What about the Plasma triglyceride concentration (intact rats [1]; Hour 6) of the same compound?
A: The Plasma triglyceride concentration was 122 ± 15 mg/100 ml.

Q: And the “Free fatty acid concentration in the plasma” value (“Free fatty acid concentration” for short) (intact rats [1]; Hour 1)?
A: Its value is 326 ± 15 mg/100 ml.

Q: What about the “Free fatty acid concentration” value (intact rats [1]; Hour 2.5) of the same compound?
A: Its value is 494 ± 183 mg/100 ml.

Q: What about the “Free fatty acid concentration” value (intact rats [1]; Hour 4) of the same compound?
A: The value was 641 ± 126 mg/100 ml.

Q: What about the “Free fatty acid concentration” value (intact rats [1]; Hour 6) of the same compound?
A: The value was 347 ± 65 mg/100 ml.

Q: What about the “Effect on the action of lipase” value ([2]; in vitro, Table 1 overall) of the same compound?
A: The value was “accelerate the action of lipase to a significant extent”.

Q: What about the “0.005 N NaOH consumed” value ([2]; reaction time 0.5 hour) of the same compound?
A: Its value is 1.74 mL.

Q: What about the “0.005 N NaOH consumed” value ([2]; reaction time 1 hour) of the same compound?
A: The value was 2.00 mL.

Q: What about the “0.005 N NaOH consumed” value ([2]; reaction time 2 hour) of the same compound?
A: The value was 2.20 mL.

Q: And the “0.005 N NaOH consumed” value ([2]; reaction time 19 hour)?
A: The value was 4.77 mL.

Q: What about the “Fat discharge (total lipid content of the faeces)” value (bile-deficient rats; bile acid-deficient rats, daily 1 ml fat + 150 mg DIMEB for 5 days, faeces of first 4 days) of the same compound?
A: Its value is 6.16 ± 2.37 g/100 g.

Q: What about the Liver triglycerides (bile-deficient rats; [4]) of the same compound?
A: Its Liver triglycerides is 9.1 ± 2.2 mg/100 ml.

Q: What about the Plasma total lipids (bile-deficient rats; [4]) of the same compound?
A: Its Plasma total lipids is 688.7 ± 95.8 mg/100 ml.

Q: And the Plasma triglycerides (bile-deficient rats; [4])?
A: The Plasma triglycerides was 71.9 ± 19.1 mg/100 ml.

Q: And the Introduced fat absorbed (bile-deficient rats; bile-deficient rats, daily 1 ml swine fat + 150 mg DIMEB)?
A: The Introduced fat absorbed was ~100%.

Q: What about the “Radioactivity in 10 ml of blood” value (intact rats [3]; 1 h, animal 4) of the same compound?
A: Its value is 1.71 percentage.

Q: And the “Radioactivity in 10 ml of blood” value (intact rats [3]; 1 h, animal 5)?
A: The value was 1.74 percentage.

Q: And the “Radioactivity in 10 ml of blood” value (intact rats [3]; 1 h, animal 6)?
A: Its value is 2.23 percentage.

Q: What about the “Radioactivity in 10 ml of blood” value (intact rats [3]; 1 h, mean) of the same compound?
A: Its value is 1.89 percentage.

Q: And the “Radioactivity in 10 ml of blood” value (intact rats [3]; 2 h, animal 4)?
A: Its value is 1.84 percentage.

Q: And the “Radioactivity in 10 ml of blood” value (intact rats [3]; 2 h, animal 5)?
A: The value was 1.88 percentage.

Q: What about the “Radioactivity in 10 ml of blood” value (intact rats [3]; 2 h, animal 6) of the same compound?
A: The value was 2.00 percentage.

Q: What about the “Radioactivity in 10 ml of blood” value (intact rats [3]; 2 h, mean) of the same compound?
A: The value was 1.91 percentage.

Q: And the “Radioactivity in 10 ml of blood” value (intact rats [3]; 3 h, animal 4)?
A: Its value is 2.03 percentage.

Q: What about the “Radioactivity in 10 ml of blood” value (intact rats [3]; 3 h, animal 5) of the same compound?
A: Its value is 1.75 percentage.

Q: And the “Radioactivity in 10 ml of blood” value (intact rats [3]; 3 h, animal 6)?
A: The value was 2.13 percentage.

Q: What about the “Radioactivity in 10 ml of blood” value (intact rats [3]; 3 h, mean) of the same compound?
A: The value was 1.97 percentage.

Q: What about the “Radioactivity in 10 ml of blood” value (intact rats [3]; 4 h, animal 4) of the same compound?
A: The value was 2.12 percentage.

Q: What about the “Radioactivity in 10 ml of blood” value (intact rats [3]; 4 h, animal 5) of the same compound?
A: Its value is 1.71 percentage.

Q: And the “Radioactivity in 10 ml of blood” value (intact rats [3]; 4 h, animal 6)?
A: Its value is 1.99 percentage.

Q: What about the “Radioactivity in 10 ml of blood” value (intact rats [3]; 4 h, mean) of the same compound?
A: The value was 1.94 percentage.

Q: And the “Radioactivity in 10 ml of blood” value (intact rats [3]; 5 h, animal 4)?
A: Its value is 2.10 percentage.

Q: And the “Radioactivity in 10 ml of blood” value (intact rats [3]; 5 h, animal 5)?
A: Its value is 1.76 percentage.

Q: And the “Radioactivity in 10 ml of blood” value (intact rats [3]; 5 h, animal 6)?
A: The value was 2.00 percentage.

Q: And the “Radioactivity in 10 ml of blood” value (intact rats [3]; 5 h, mean)?
A: The value was 1.95 percentage.

Q: And the “Radioactivity in 10 ml of blood” value (intact rats [3]; 6 h, animal 4)?
A: Its value is 2.16 percentage.

Q: And the “Radioactivity in 10 ml of blood” value (intact rats [3]; 6 h, animal 5)?
A: The value was 1.75 percentage.

Q: And the “Radioactivity in 10 ml of blood” value (intact rats [3]; 6 h, animal 6)?
A: The value was 2.04 percentage.

Q: What about the “Radioactivity in 10 ml of blood” value (intact rats [3]; 6 h, mean) of the same compound?
A: The value was 1.98 percentage.

Q: What about the “Radioactivity in 10 ml of blood” value (intact rats [3]; 8 h, animal 4) of the same compound?
A: The value was 2.16 percentage.

Q: And the “Radioactivity in 10 ml of blood” value (intact rats [3]; 8 h, animal 5)?
A: The value was 1.84 percentage.

Q: What about the “Radioactivity in 10 ml of blood” value (intact rats [3]; 8 h, animal 6) of the same compound?
A: Its value is 1.94 percentage.

Q: And the “Radioactivity in 10 ml of blood” value (intact rats [3]; 8 h, mean)?
A: The value was 1.98 percentage.

Q: What about the “Radioactivity in 10 ml of blood” value (intact rats [3]; 10 h, animal 4) of the same compound?
A: The value was 2.20 percentage.

Q: And the “Radioactivity in 10 ml of blood” value (intact rats [3]; 10 h, animal 5)?
A: The value was 2.02 percentage.

Q: And the “Radioactivity in 10 ml of blood” value (intact rats [3]; 10 h, animal 6)?
A: The value was 2.21 percentage.

Q: What about the “Radioactivity in 10 ml of blood” value (intact rats [3]; 10 h, mean) of the same compound?
A: The value was 2.14 percentage.

Q: What about the “Radioactivity in 10 ml of blood” value (intact rats [3]; 24 h, animal 4) of the same compound?
A: Its value is 2.84 percentage.

Q: And the “Radioactivity in 10 ml of blood” value (intact rats [3]; 24 h, animal 5)?
A: Its value is 2.94 percentage.

Q: And the “Radioactivity in 10 ml of blood” value (intact rats [3]; 24 h, animal 6)?
A: Its value is 2.39 percentage.

Q: And the “Radioactivity in 10 ml of blood” value (intact rats [3]; 24 h, mean)?
A: Its value is 2.72 percentage.

Q: What about the “Radioactivity of the blood, percent of the administered activity” value (intact rats [3]; 24th hour, both groups) of the same compound?
A: Its value is 2.7%.

Q: And the “Absorption-enhancing effect on 3H-stearic acid” value (intact rats [3]; physiological bile functions, 50 mg DIMEB)?
A: Its value is “did not show any absorption-enhancing effect”.

Q: And the Toxic phenomena (mice)?
A: The Toxic phenomena was “no toxic phenomena”.

From patent US4774232A, “Bile-substituting method of treatment for the promotion of fat digestion” (Chinoin Gyogyszer Es Vegyeszeti Termak Ek Gyara Rt, priority 1985, dated 1988)
